The results in this text go back to patent US5037852A, “Cinnamoylamide derivatives” (Ono Pharmaceutical Co., Ltd., priority 1987, dated 1991).

The target of this assay is 5α-reductase. Put plainly: Inhibitory activity on 5α-reductase in vitro (rat prostate enzyme, [4-C14]-testosterone conversion to dihydrotestosterone). It counts as biochemical. As to conditions: male rat prostate enzyme; [4-C14]-testosterone 1.5 n mol, NADPH; 60 mins at 37° C.; pH 7.4 buffer. Here is the method:
The test was carried out with reference to the method of J. Shimazaki et al [See Endocrinol, Japon., 18, 179 (1971).]
Male rat's prostate (4 g) was homogenized with its triple volume of 0.1M HEPES buffer (PH 7.4) including 0.25M cane sugar and was centrifuged at 3000 r.p.m. for 10 mins.
The precipitate was suspended into the buffer solution described above (10 ml), and the suspension was centrifuged at 3000 r.p.m for 5 mins. The resulting precipitated was suspended in the buffer solution (3 ml) described above and was used as a sauce of enzyme.
A reaction mixture (total volume 0.1 ml) of [4-C^14 ]-testosterone (1.5n mol, 1.5×10^5 cpm), NADPH (0.5 μmol), enzyme solution (0.03 ml) described above and several kinds of concentration of the compounds in the present invention was incubated for 60 mins at 37° C. Enzyme reaction was quenched by addition of a mixture (0.4 ml) of chloroform and methanol (1:2), and the mixture was centrifuged at 2000 r.p.m for 3 mins. The supernatant (50 μl) was spotted on silica gel thin layer plate. The spot on the plate was developed with a mixture of chloroform, methanol and acetic acid (99.2:0.6:0.2). Radioactivity of dihydrotestosteron generated on plate was measured by TLC scanner of radio-autography and inhibitory ratio was calculated.
The IC50 is the concentration that gives 50% inhibition. For `CCCCCc1cccc(/C(C)=C/C(=O)Nc2ccccc2OCCCC(=O)O)c1` [1 (a), 4-[2-(3-pentyl-β-methylcinnamoylamino)phenoxy]butanoic acid], the IC50 turned out to be 160 nM.

`C/C(=C\C(=O)Nc1ccccc1OCCCC(=O)O)c1ccc(CC(C)(C)C)cc1` [1 (b)] registered an IC50 of 370 nM.

With `CCC(CC)Cc1ccc(/C(C)=C/C(=O)Nc2ccccc2OCCCC(=O)O)cc1` [1 (c), 4-[2-{4-(2-ethylbutyl)-β-methylcinnamoylamino}phenoxy]butanoic acid], the IC50 stood at 300 nM.

In the case of `CCCC(C)Cc1ccc(/C(C)=C/C(=O)Nc2ccccc2OCCCC(=O)O)cc1` (stereo not drawn) [1 (d), 4-[2-{4-(2-methylpentyl)-β-methylcinnamoylamino}phenoxy] butanoic acid], the IC50 was determined as 340 nM.

In turn, `CCCCCOc1ccc(/C(C)=C/C(=O)Nc2ccccc2OCCCC(=O)O)c(F)c1` [1 (e), 4-[2-(2-fluoro-4-pentyloxy-β-methylcinnamoylamino)phenoxy]butanoic acid] had an IC50 of 280 nM.

On to `CCCCSc1ccc(/C(C)=C/C(=O)Nc2ccccc2OCCCC(=O)O)cc1` [1 (f), 4-[2-(4-butylthio-β-methylcinnamoylamino)phenoxy]butanoic acid], for which the IC50 amounted to 430 nM. Against the preceding molecule, the IC50 is about 1.5-fold higher.

Molecule `C/C(=C\C(=O)Nc1ccccc1OCCCC(=O)O)c1ccc(CC2CCC2)cc1` [1 (g), 4-[2-(4-cyclobutylmethyl-β-methylcinnamoylamino)phenoxy] butanoic acid] yielded an IC50 of 110 nM.

In turn, `C/C(=C\C(=O)Nc1ccccc1OCCCC(=O)O)c1ccc(CC2CCCCC2)cc1` [1 (h), 4-[2-(4-cyclohexylmethyl-β-methylcinnamoylamino)phenoxy] butanoic acid] returned an IC50 of 280 nM.

`C/C(=C\C(=O)Nc1ccccc1OCCCC(=O)O)c1ccc(CCCCc2ccccc2)cc1` [1 (i), 4-[2-{4-(4-phenylbutyl)-β-methylcinnamoylamino)phenoxy] butanoic acid]: the IC50 came to 320 nM.

In the case of `C/C(=C\C(=O)Nc1ccccc1OCCCC(=O)O)c1ccc(Oc2ccccc2)cc1` [1 (j), 4-[2-(4-phenoxy-β-methylcinnamoylamino)phenoxy]butanoic acid], the half-maximal inhibitory concentration (IC50) turned out to be 250 nM.

The molecule `CCCCCc1cccc(/C=C(\C)C(=O)Nc2ccccc2OCCCC(=O)O)c1` [1 (k), 4-[2-(3-pentyl-α-methylcinnamoylamino)phenoxy]butanoic acid] returned an IC50 of 240 nM. The IC50 values of the last two molecules are within 1.5-fold of each other.

In turn, `C/C(=C\c1ccc(CCc2ccccc2)cc1)C(=O)Nc1ccccc1OCCCC(=O)O` [1 (l), 4-[2-(4-phenethyl-α-methylcinnamoylamino)phenoxy]butanoic acid] returned an IC50 of 230 nM.

`CCCCCc1ccc(/C(C)=C/C(=O)Nc2ccccc2OCCCC(=O)O)cc1` [Example 1, 4-[2-(4-pentyl-β-methylcinnamoylamino)phenoxy]butanoic acid] came in with an IC50 of 200 nM.
